The values below come from US12421252B2, “Spiro (isobenzofuranazetidine) compounds for the treatment of autoimmune disease” (Hoffmann-La Roche Inc., priority 2020, dated 2025).

The target of this experiment is T1, hTLR9 (Homo sapiens, UniProt Q9NR96).
T1 sequence (Q9NR96 26-1032): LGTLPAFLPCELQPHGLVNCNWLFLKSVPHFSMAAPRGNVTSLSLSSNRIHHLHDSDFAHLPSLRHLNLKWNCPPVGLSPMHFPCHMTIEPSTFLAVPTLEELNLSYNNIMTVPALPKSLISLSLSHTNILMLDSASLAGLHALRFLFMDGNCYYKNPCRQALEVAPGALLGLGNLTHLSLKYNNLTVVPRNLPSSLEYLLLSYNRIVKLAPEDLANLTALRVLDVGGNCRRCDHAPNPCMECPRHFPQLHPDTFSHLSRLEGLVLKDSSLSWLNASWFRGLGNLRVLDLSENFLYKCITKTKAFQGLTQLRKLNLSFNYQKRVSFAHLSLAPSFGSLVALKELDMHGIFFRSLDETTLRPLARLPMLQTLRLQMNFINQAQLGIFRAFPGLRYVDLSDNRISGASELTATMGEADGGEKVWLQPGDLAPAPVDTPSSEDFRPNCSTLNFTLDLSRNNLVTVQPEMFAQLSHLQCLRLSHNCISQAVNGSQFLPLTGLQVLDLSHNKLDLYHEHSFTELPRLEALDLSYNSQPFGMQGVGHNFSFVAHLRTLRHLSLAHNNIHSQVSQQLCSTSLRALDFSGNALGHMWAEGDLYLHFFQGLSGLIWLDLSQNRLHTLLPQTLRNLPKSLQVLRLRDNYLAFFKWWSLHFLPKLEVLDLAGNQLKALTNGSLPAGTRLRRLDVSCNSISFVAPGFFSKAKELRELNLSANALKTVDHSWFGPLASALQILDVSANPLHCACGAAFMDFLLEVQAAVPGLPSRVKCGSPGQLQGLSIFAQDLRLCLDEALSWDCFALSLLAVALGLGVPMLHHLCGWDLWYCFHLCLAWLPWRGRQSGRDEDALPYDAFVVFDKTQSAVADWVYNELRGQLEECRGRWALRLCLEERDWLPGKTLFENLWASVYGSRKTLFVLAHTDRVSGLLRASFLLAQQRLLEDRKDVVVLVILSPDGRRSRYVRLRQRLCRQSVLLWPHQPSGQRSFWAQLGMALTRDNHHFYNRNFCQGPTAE
Description: HEK293-Blue-hTLR-9 cells assay. The class given is cell-based. Conditions: HEK293-Blue-hTLR9 cells, ODN2006 stimulation, 20 hrs, SEAP reporter; read-out: HEK/hTLR9 IC50. The source says:
HEK293-Blue-hTLR-9 cells assay: A stable HEK293-Blue-hTLR-9 cell line was purchased from InvivoGen (Cat. #: hkb-htlr9, San Diego, California, USA). These cells were originally designed for studying the stimulation of human TLR9 by monitoring the activation of NF-κB. A SEAP (secreted embryonic alkaline phosphatase) reporter gene was placed under the control of the IFN-β minimal promoter fused to five NF-κB and AP-1-binding sites. The SEAP was induced by activating NF-κB and AP-1 via stimulating HEK-Blue hTLR9 cells with TLR9 ligands. Therefore the reporter expression was declined by TLR9 antagonist under the stimulation of a ligand, such as ODN2006 (Cat. #: tlrl-2006-1, Invivogen, San Diego, California, USA), for incubation of 20 hrs. The cell culture supernatant SEAP reporter activity was determined using QUANTI-Blue™ kit (Cat. #: rep-qb1, Invivogen, San Diego, California, USA) at a wavelength of 640 nm, a detection medium that turns purple or blue in the presence of alkaline phosphatase.
HEK293-Blue-hTLR9 cells were incubated at a density of 250,000˜450,000 cells/mL in a volume of 170 μL in a 96-well plate in Dulbecco's Modified Eagle's medium (DMEM) containing 4.5 g/L glucose, 50 U/mL penicillin, […], 2 mM L-glutamine, 10% (v/v) heat-inactivated fetal bovine serum with addition of 20 μL test compound in a serial dilution in the presence of final DMSO at 1% and 10 μL of 20 uM ODN2006 in above DMEM, perform incubation under 37° C. in a CO2 incubator for 20 hrs. Then 20 μL of the supernatant from each well was incubated with 180 μL Quanti-blue substrate solution at 37° C. for 2 h and the absorbance was read at 620-655 nm using a spectrophotometer. The signaling pathway that TLR9 activation leads to downstream NF-κB activation has been widely accepted, and therefore similar reporter assay was modified for evaluating TLR9 antagonist.

Structures are written as SMILES.

Consider `[2H]c1ccc2c(N3C[C@H](CN4CC5(C4)OCc4cc(N6C[C@H]7NCCO[C@@H]7C6)ncc45)O[C@H](C)C3)ccc(C#N)c2n1` [Example 28, 5-[(2S,6R)-2-[[6-[(4aR,7aR)-3,4,4a,5,7,7a-hexahydro-2H-pyrrolo[3,4-b][1,4]oxazin-6-yl]spiro[1H-furo[3,4-c]pyridine-3,3′-azetidine]-1′-yl]methyl]-6-methyl-morpholin-4-yl]-2-deuterio-quinoline-8-carbonitrile], for which the IC50 turned out to be 160 nM. In the case of `C[C@@H]1CN(c2ccc(C#N)n3nccc23)C[C@H](CN2CC3(C2)OCc2cc(N4CC5(CNCCO5)C4)ccc23)O1` [Example 7, 4-[(2R,6S)-2-methyl-6-[[6-(5-oxa-2,8-diazaspiro[3.5]nonan-2-yl)spiro[1H-isobenzofuran-3,3′-azetidine]-1′-yl]methyl]morpholin-4-yl]pyrazolo[1,5-a]pyridine-7-carbonitrile] it was 68 nM. In the case of `C[C@@H]1CN(c2cc(=O)n(C)c3ncccc23)C[C@H](CN2CC3(C2)OCc2cc(N4CC(N)C4)ccc23)O1` [Example 13, 4-[(2S,6R)-2-[[6-(3-aminoazetidin-1-yl)spiro[1H-isobenzofuran-3,3′-azetidine]-1′-yl]methyl]-6-methyl-morpholin-4-yl]-1-methyl-1,8-naphthyridin-2-one] it was 68 nM; in that of `C[C@@H]1CN(c2ccc(C#N)n3ncc(F)c23)C[C@H](CN2CC3(C2)OCc2cc(N4CCNCC4)ccc23)O1` [Example 6, 3-fluoro-4-[(2R,6S)-2-methyl-6-[(6-piperazin-1-ylspiro[1H-isobenzofuran-3,3′-azetidine]-1′-yl)methyl]morpholin-4-yl]pyrazolo[1,5-a]pyridine-7-carbonitrile], 90 nM. The result for `[2H]c1ccc2c(N3C[C@H](CN4CC5(C4)OCc4cc(N6C[C@@H](N)[C@H](OC)C6)cnc45)O[C@H](C)C3)ccc(C#N)c2n1` [Example 31, 5-[(2S,6R)-2-[[3-[(3R,4R)-3-amino-4-methoxy-pyrrolidin-1-yl]spiro[5H-furo[3,4-b]pyridine-7,3′-azetidine]-1′-yl]methyl]-6-methyl-morpholin-4-yl]-2-deuterio-quinoline-8-carbonitrile] reads 79 nM; that for `C[C@@H]1CN(c2ccc(C#N)n3ncc(F)c23)C[C@H](CN2CC3(C2)OCc2cc(N4CC[C@](C)(N)C4)ccc23)O1` [Example 5, 4-[(2S,6R)-2-[[6-[(3S)-3-amino-3-methyl-pyrrolidin-1-yl]spiro[1H-isobenzofuran-3,3′-azetidine]-1′-yl]methyl]-6-methyl-morpholin-4-yl]-3-fluoro-pyrazolo[1,5-a]pyridine-7-carbonitrile], 94 nM. As to `C[C@@H]1CN(c2ccc(C#N)n3ncc(F)c23)C[C@H](CN2CC3(C2)OCc2cc(N4CC5(CN(C)C5)C4)ccc23)O1` [Example 2, 3-fluoro-4-[(2R,6S)-2-methyl-6-[[6-(6-methyl-2,6-diazaspiro[3.3]heptan-2-yl)spiro[1H-isobenzofuran-3,3′-azetidine]-1′-yl]methyl]morpholin-4-yl]pyrazolo[1,5-a]pyridine-7-carbonitrile], the IC50 amounted to 45 nM. The result for `[2H]c1ccc2c(N3C[C@H](CN4CC5(C4)OCc4cc(N6C[C@@H](N)[C@H](OC)C6)ccc45)O[C@H](C)C3)ccc(C#N)c2n1` [Example 16, 5-[(2S,6R)-2-[[6-[(3R,4R)-3-amino-4-methoxy-pyrrolidin-1-yl]spiro[1H-isobenzofuran-3,3′-azetidine]-1′-yl]methyl]-6-methyl-morpholin-4-yl]-2-deuterio-quinoline-8-carbonitrile] reads 32 nM; that for `C[C@@H]1CN(c2ccc(C#N)n3ncc(F)c23)C[C@H](CN2CC3(C2)OCc2cc(N[C@H]4CNC[C@H]4F)ccc23)O1` [Example 3, 3-fluoro-4-[(2S,6R)-2-[[6-[[(3S,4R)-4-fluoropyrrolidin-3-yl]amino]spiro[1H-isobenzofuran-3,3′-azetidine]-1′-yl]methyl]-6-methyl-morpholin-4-yl]pyrazolo[1,5-a]pyridine-7-carbonitrile], 47 nM.
